Measurements taken from patent USRE36784E, “Chemoprotective isothiocyanates” (The Johns Hopkins University, priority 1997, dated 2000).

How the values were obtained:
[1] = tested on: quinone reductase (QR) in Hepa 1c1c7 murine hepatoma cells; experiment: Induction of QR (inducer potency, CD value) in Hepa 1c1c7 murine hepatoma cells; format: cell-based
Experimental: Assay of Inducer Potency. Inducer activity was measured in Hepa 1c1c7 murine hepatoma cells grown in 96-well microtiter plates (Prochaska and Santamaria, Anal. Biochem. 169:328-336 (1988); Prochaska et al., Proc. Natl. Acad. Sciences USA 89:2394-2398 (1992)). QR activity (based on the formation of the blue-brown reduced tetrazolium dye) was measured with an optical microtiter plate scanner in cell lysates prepared in one plate, and the cell density was determined in the second plate by staining with crystal violet. Quantitative information on specific activity of QR, the inducer potency, and the cytotoxicity of the extract or compound tested is obtained by computer analysis of the absorbances. One unit of inducer activity is defined as the amount that when added to a single microtiter well doubled the QR specific activity. The CD value is the concentration of a compound required to double the quinone reductase specific activity in Hepa 1c1c7 murine hepatoma cells.
Each of the analogs of sulforaphane was tested for the ability to induce QR in murine hepatoma cells by the assay described in Example 1.
Analogs were synthesized and tested in the hepatoma cell assay described in Example 1.

[2] = tested on: QR (quinone reductase); experiment: Induction of QR in mouse tissues after gavage; format: in vivo, mouse (female CD-1)
Experimental: (§1) The compounds were administered to 6week-old female CD1 mice (4 or 5 mice
(§2) per group) by gavage in indicated single daily doses in 0.1 ml of Emulpho
(§3) EL 620P (GAF. Linden, NJ) for 5 days. Cytosols were prepared from the
(§4) tissues 24 hr after the last treatment and assayed for enzyme activities
(§5) (glutathione Stransferase was measured with 1chloro-2,4-dinitrobenzene).
(§6) The specific activities (nmol · min^-1 · mg^-1
(§7) ± SEM) of organs of vehicletreated #control mice were as follows.
(§8) 54 ± 5.8: GST. 439 ± 34. Data are presented as mean ± SEM.

[3] = tested on: glutathione S-transferase (GST); experiment: Induction of glutathione S-transferase (GST) in mouse tissues after gavage; format: in vivo, mouse (female CD-1)
Experimental: as §1, §2, §3, §4, §5, §6, §7, §8

[4] = tested on: female CD-1 mice; experiment: Toxicity in mice dosed by gavage; format: in vivo, mouse (female CD-1); conditions: compared with sulforaphane and erucin
Source text: The sulfone (erysolin) was more toxic, but even 5-μmol daily doses for 5 days elevated the specific activities of these enzymes in some tissues examined. We therefore conclude that sulforaphane and its analogues not only induce QR in Hepa 1c1c7 murine hepatoma cells but also induce both QR and glutathione transferase activities in a number of murine organs.

[5] = 5 μmol per mouse per day, gavage, 5 days, forestomach
[6] = 5 μmol per mouse per day, gavage, 5 days, glandular stomach
[7] = 5 μmol per mouse per day, gavage, 5 days, liver
[8] = 5 μmol per mouse per day, gavage, 5 days, lung
[9] = 5 μmol per mouse per day, gavage, 5 days, proximal small intestine
[10] = 5-μmol daily doses for 5 days, some tissues

SMILES: CS(=O)(=O)CCCCN=C=S [Erysolin]
- EC (2-fold QR specific activity) ([1]; Mus musculus, Hepa-1c1c7, read-out: CD value, Table 1, QR induction, Hepa 1c1c7 cells): 0.82 µM
- relative potency as inducers of QR ([1]; comparison in words, Table 1): equipotent
- activity as inducers compared with sulforaphane and sulforaphene ([1]; in cell culture): less active
- Ratio of specific activities (treated/control), QR, Forestomach [2, 5]: 1.05 ± 0.21
- Ratio of specific activities (treated/control), QR, Glandular stomach [2, 6]: 1.57 ± 0.08
- Ratio of specific activities (treated/control), QR, Liver [2, 7]: 1.62 ± 0.09
- Ratio of specific activities (treated/control), QR, Lung [2, 8]: 1.00 ± 0.11
- Ratio of specific activities (treated/control), QR, Proximal small intestine [2, 9]: 1.22 ± 0.20
- elevation of QR specific activity [2, 10]: elevated
- Ratio of specific activities (treated/control), GST, Forestomach [3, 5]: 1.45 ± 0.15
- Ratio of specific activities (treated/control), GST, Glandular stomach [3, 6]: 1.94
- Ratio of specific activities (treated/control), GST, Liver [3, 7]: 1.08 ± 0.11
- Ratio of specific activities (treated/control), GST, Lung [3, 8]: 1.09
- Ratio of specific activities (treated/control), GST, Proximal small intestine [3, 9]: 0.87
- elevation of glutathione transferase specific activity [3, 10]: elevated
- toxicity in mice [4]: more toxic
